In this experiment the target is T1, Follicle Stimulating Hormone Receptor (FSHR) (Homo sapiens, UniProt P23945).
T1 construct: HA (N); expressed in transfected cells; host or cells: CHO-K1, transient transfection, pHM6 vector (CMV promoter)
T1 sequence (P23945 18-695): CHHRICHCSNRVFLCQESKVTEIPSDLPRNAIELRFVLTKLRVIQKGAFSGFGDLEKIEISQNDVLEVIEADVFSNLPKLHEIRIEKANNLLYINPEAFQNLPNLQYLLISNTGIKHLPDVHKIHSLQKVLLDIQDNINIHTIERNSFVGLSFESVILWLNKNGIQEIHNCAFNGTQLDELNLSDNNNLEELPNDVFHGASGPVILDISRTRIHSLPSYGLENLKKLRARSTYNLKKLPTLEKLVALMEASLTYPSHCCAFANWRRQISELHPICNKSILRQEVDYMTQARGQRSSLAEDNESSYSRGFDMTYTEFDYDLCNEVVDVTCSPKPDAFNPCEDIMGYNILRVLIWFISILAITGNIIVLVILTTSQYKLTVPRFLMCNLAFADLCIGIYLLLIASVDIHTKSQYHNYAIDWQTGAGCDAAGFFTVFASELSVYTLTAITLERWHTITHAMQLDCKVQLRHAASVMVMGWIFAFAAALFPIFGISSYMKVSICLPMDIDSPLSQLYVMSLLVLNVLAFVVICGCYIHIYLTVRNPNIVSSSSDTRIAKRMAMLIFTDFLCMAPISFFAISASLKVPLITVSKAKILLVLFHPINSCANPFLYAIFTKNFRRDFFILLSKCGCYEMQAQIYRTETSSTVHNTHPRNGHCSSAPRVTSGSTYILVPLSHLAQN
In words: HTRF cAMP agonist assay, FSHR, transiently transfected CHO-K1 cells. It counts as cell-based. The conditions noted are these: CHO-K1 cells transiently expressing human FSHR, read-out: IC50 FSHR LANCE CAMP. An excerpt: Example 17. HTRF cAMP Agonist Assay Protocol (for FSHR, TSHR, LHCGR)
Mammalian expression vectors designed to express either Follicle Stimulating Hormone Receptor (FSHR), Thyroid Stimulating Hormone Receptor (TSHR), or Luteinizing Hormone/Choriogonadotropin Receptor (LHCGR), were generated with an HA-tag on the N-terminus. All constructs were expressed under a human cytomegalovirus (CMV) immediate early enhancer and promoter using the pHM6 expression vector. The protein coding region was confirmed by sequence analysis to be in-frame and of the expected sequence, matching the following accession numbers: FSHR NM_000145, TSHR NM_000369, and LHCGR NM_000233.
HTRF cAMP assays were performed using Chinese Hamster Ovary (CHO-K1) cell lines transiently expressing human FSH, TSH, and LHCG receptors. 48 hours before the assay, cells were washed with PBS and then dissociated from tissue culture flasks with 0.25% trypsin. Dissociated cells were quenched in full media (F-12K Medium Corning REF #10-025-CV, 10% Avantor Seradigm FB Essence Cat #10803-034, 1% Penicillin/Streptomycin Cytiva HyClone Cat #SV30010) and then collected by centrifugation at 290×g for 5 min. Cells were resuspended in full media and dispensed into 150 mm cell culture dishes (Nest Scientific Cat #715001), at 2.3×10^6 cells/flask. 7 hours later, cells were transfected using Lipofectamine transfection reagent (Invitrogen Cat #18324020). Briefly, 60 μL of lipofectamine was dispensed into 2 mL of Opti-MEM (Gibco Cat #31985070) and incubated for 5 minutes at room temperature. Then, the mixture was added onto […] of DNA and incubated for another 20 minutes at room temperature. Cells were washed with warm (37° C.) PBS. 17.5 mL of Opti-MEM was dispensed onto the cells, followed by addition of the Opti-MEM/lipofectamine/DNA mixture. Cells were incubated overnight in a 37° C., 5% CO2 cell incubator. 17-19 hours later, Opti-MEM was aspirated off the cells and replaced with full media. Cells were incubated for another 24 hours in a 37° C., 5% CO2 cell incubator.
On the day of the assay, cells were washed with PBS and then dissociated from tissue culture flasks with 0.25% trypsin. Dissociated cells were quenched in full media and then collected by centrifugation at 290×g for 5 min. Cells were resuspended in PBS^+/+ (Corning REF #20-030-CV) to a concentration of 2×10^5 cells/mL. 10 μL/well of cells (2,000 cells/well) were dispensed into 384-well Corning plates (REF #3825), in triplicate. Cells were incubated at room temperature for 2 hours.
Example FSHR Modulator compounds were diluted in assay buffer (PBS^+/+, 0.05% BSA Sigma-Aldrich A3059, 500 μM IBMX Sigma-Aldrich 15879) to 3.5× the final assay concentration. 4 μL of test agonist was added to the cells and incubated for 1 hour at room temperature. 10 μL of cAMP detection reagents (LANCE Ultra cAMP Detection Kit PerkinElmer TRF0264) were dispensed onto the cells and plates were incubated for 2 hours at room temperature (cAMP detection reagents were made according to the PerkinElmer kit protocol). Plates were read on an Envision plate reader following PerkinElmer guidelines.
Raw data for all assays was transmitted directly from plate readers into a database for processing. All assay plates contained both positive and negative control wells to allow for data normalization and scaling. In agonist assays, negative control wells contained assay buffer and positive control wells contained […] positive control (10 nM Follicle Stimulating Hormone Sigma-Aldrich F4021, 50 nM Thyroid Stimulating Hormone Sigma-Aldrich 869006, 50 nM Luteinizing Hormone MyBioSource MBS5308806, for their respective receptors). All control wells contained DMSO at a final assay concentration that matched the test compound wells. […]
Percent control data were analyzed by non-linear regression with a sigmoidal dose response algorithm in the database to yield potency and efficacy data.
(In general: TR-FRET usually uses a lanthanide donor and a delayed reading to cut background.)
Take `COc1cc2c(cc1-c1ccncc1)-c1c(c(C(=O)N3CCOCC3(C)C)nn1-c1cc(F)cc(F)c1)CC2` [Compound 15-09, [1-(3,5-difluorophenyl)-7-methoxy-8-(4-pyridyl)-4,5-dihydrobenzo[g]indazol-3-yl]-(3,3-dimethylmorpholin-4-yl)methanone]: the IC50 was 370 nM.
For `COc1cc2c(cc1-c1cccnc1)-c1c(c(C(=O)N3CCOCC3(C)C)nn1-c1cc(F)cc(F)c1)CO2` [Compound 15-08] the value was 7.32 nM.
Under `COc1cc2c(cc1-c1cncc(C(N)=O)c1)-c1c(c(C(=O)N3CCC(=O)C3(C)C)nn1-c1cc(Cl)cc(Cl)c1)CC2` [Compound 8-90] stands 6.69 nM; under `COc1cc2c(cc1-c1cncc(C(N)=O)c1)-c1c(c(C(=O)N3CCNC(=O)C3(C)C)nn1-c1cc(Cl)cc(Cl)c1)S(=O)(=O)C2` [Compound 12-12], 228 nM; under `COc1cc2c(cc1-c1cncc(C(N)=O)c1)-c1c(c(CN3CCOCC3(C)C)nn1-c1cc(Cl)cc(Cl)c1)CC2` [Compound 9-06], 0.976 nM.
Under `COc1cc2c(cc1-c1cncc(C#N)c1)-c1c(c(C(=O)N(C)C(C)(C)C)nn1-c1cc(Cl)cc(Cl)c1)CC2` [Compound 6-02B, N-tert-butyl-8-(5-cyano-3-pyridyl)-1-(3,5-dichlorophenyl)-7-methoxy-N-methyl-4,5-dihydrobenzo[g]indazole-3-carboxamide] stands 31.9 nM.
Take `COc1cc2c(cc1-c1ccn(C)n1)-c1c(c(C(=O)N(C)C(C)(C)C)nn1-c1ccsc1)C2` [Compound 5-08, N-tert-butyl-6-methoxy-N-methyl-7-(1-methylpyrazol-3-yl)-1-(3-thienyl)-4H-indeno[1,2-c]pyrazole-3-carboxamide]: the IC50 was 195 nM.
As to `COc1cc2ccc3c(C(=O)N4CCOCC4(C)C)nn(-c4cc(Cl)cc(Cl)c4)c3c2cc1-c1ccn(C)n1` [Compound 6-07, [1-(3,5-dichlorophenyl)-7-methoxy-8-(1-methylpyrazol-3-yl)benzo[g]indazol-3-yl]-(3,3-dimethylmorpholin-4-yl)methanone], the IC50 stood at 83.2 nM.
For `COc1cc(C(N)=O)cc(-c2cc3c(cc2OC)CCc2c(C(=O)N(C)C(C)(C)C)nn(-c4cc(Cl)cc(Cl)c4)c2-3)n1` [Compound 11-01] the value was 12.5 nM; for `COc1cc2c(cc1-c1cncc(C(N)=O)c1)-c1c(c(C(=O)N3[C@H](C)COC[C@@H]3C)nn1-c1cc(Cl)cc(Cl)c1)CC2` [Compound 8-49], 2.4 nM.
For `COc1cc2c(cc1-c1ccn(C)n1)-c1c(c(C(=O)N3CCOCC3(C)C)nn1-c1ccsc1)OC2` [Compound 2-07] the value was 2410 nM.
Under `COc1cc(Cl)cc(-n2ncc3c2-c2cc(-c4cncc(C(N)=O)c4)c(OC)cc2CC3)c1` [Compound 9-24] stands 15500 nM.
For the compound `COc1cc2c(cc1-c1cncc(C(N)=O)c1)-c1c(c(C(=O)N3CCNCC3C)nn1-c1cc(Cl)cc(Cl)c1)CC2` (stereo not drawn) [Compound 8-01, 5-[1-(3,5-dichlorophenyl)-7-methoxy-3-(2-methylpiperazine-1-carbonyl)-4,5-dihydrobenzo[g]indazol-8-yl]pyridine-3-carboxamide], the IC50 came out at 20.8 nM.
Under `COc1cc2c(cc1-c1cncc(C(N)=O)c1)-c1c(c(C(=O)N3CCC4CN(C(=O)OC(C)(C)C)CCC43)nn1-c1cc(Cl)cc(Cl)c1)CC2` (stereo not drawn) [Compound 8-23A, tert-butyl 1-[8-(5-carbamoyl-3-pyridyl)-1-(3,5-dichlorophenyl)-7-methoxy-4,5-dihydrobenzo[g]indazole-3-carbonyl]-3,3a,4,6,7,7a-hexahydro-2H-pyrrolo[3,2-c]pyridine-5-carboxylate] stands 928 nM; under `COc1cc2c(cc1-c1cncc(C(N)=O)c1)-c1c(c(C(=O)N3CCOCC3(C)C)nn1CC(C)C)CC2` [Compound 9-14], 14.3 nM.

As a reminder, the IC50 is the concentration needed to halve the response being measured.

The record behind these values is US20260008783A1, “MODULATORS OF FSHR AND USES THEREOF” (Celmatix Inc., priority 2022, published 2026).
